Test results published in patent publication US20240150339A1, “Compounds and Their Use as PDE4 Activators” (Mironid Limited, priority 2021, published 2024).

What was measured:
PDE4D5 = biological target: T1, PDE4D5 (Homo sapiens, UniProt Q08499); experiment: PDE assay, activation of full-length human PDE4D5 long form ([3H]cAMP radio-assay); format: biochemical; details: 30 μM test compound; mean % increase in counts over basal activity
T1 construct: Using Full-Length Human PDE4 Isoforms: Long Forms PDE4D5, PDE4C3, PDE4B1 and Short Form PDE4B2; made in house; cytosol fraction of the cell lysate, not purified
Source text: Experiment 1: Measurement of Modulation of Enzyme Activity by PDE4 Long Form Activators of the Present Invention Using Full-Length Human PDE4 Isoforms: Long Forms PDE4D5, PDE4C3, PDE4B1 and Short Form PDE4B2
(Marchmont, R. J. and Houslay, M. D. Biochem. J. 187: 381-92, 1980)
For transient transfection of exogenous PDE4 long isoforms, HEK 293 cells were transfected with pcDNA3.1 or pDEST™ PDE4 expression vectors using Lipofectamine LTX/Plus reagent (Invitrogen) as outlined by the manufacturer.
Where stable cell lines were generated the clonal isolates were expanded to obtain cell lines that stably expressed the full-length human PDE4 long isoforms and the full length human PDE4B2 short isoform. These were called the HEK-PDE4D5, HEK-PDE4B1 and HEK-PDE4B2 cell lines, respectively.
HEK-PDE4D5 cells were seeded out in 100 mm plates and incubated at 37° C. in an atmosphere of 5% CO2, 95% air. Cell lysates were prepared using KHEM buffer [50 mM KCl, 10 mM EGTA, 50 mM HEPES (pH 7.2), 1.92 mM MgCl2].
To prepare the cell lysates, the 100 mm plates containing the cells were placed on ice and washed with ice-cold PBS (phosphate buffered saline, pH 7.4). KHEM buffer (500 μl) was added to the cells. Cells were then scraped off the plate and triturated using a needle (BD Microlance™ 0.8, 40 mm). The lysed cells were then centrifuged at 2000 rpm for 10 minutes to remove cell debris and the supernatant (cell lysate containing recombinant PDE4D5) was transferred to a fresh tube and kept on ice.
The cell lysate containing recombinant PDE4D5 was transferred into a centrifuge tube and placed into an ultracentrifuge (BECKMAN COULTER) and spun at high speed (100,000 g) for 30 minutes at 4° C. The cytosol fraction was then collected and its protein amount determined using a BCA protein assay.
PDE assays were performed in thin walled V-bottomed 96-well plates. The assays were performed at a final concentration of 10 mM Tris/5 mM MgCl2 μlus PDE4D5 cell lysate cytosol fraction, containing over-expressed PDE4D5, with and without test compound. The lysate/compound mix were incubated together for 15 min at room temperature on an orbital shaker prior to addition of [^3H] cAMP (final concentration 1 μM [^3H] cAMP; Perkin Elmer) to a final volume of 50 μl per reaction. The reactions were then incubated for 10 minutes at 30° C., terminated by heating for 2 min at 95° C. and allowed to cool. Snake venom (12.5 μl of 1 mg/ml; Crotalus atrox, Sigma) was then added and the plates were agitated and incubated for a further 15 minutes at 30° C. Dowex ion exchange resin (Sigma, chloride form, 200-400 mesh; 200 μl; prepared as a 1:1 Dowex: water stock, thoroughly re-suspended and diluted 2:1 with ethanol) was then added to each well and the plates incubated for 15 min at room temperature on an orbital shaker ensuring sufficient agitation for resin suspension (550 RPM). The reaction mixture was then transferred to a 96 well filter plate (Millipore; […] pore size) and filtered into a receiving 96-well plate to remove the dowex suspension. 30 μL of the filtered solution was then transferred to the wells of an Opti-plate (Perkin Elmer) 96 well assay plate and 120 μl of Microscint 40 scintillation fluid was added. The plate was then placed on an orbital shaker for 10 min at high speed (900 RPM) to mix the sample with scintillation fluid prior to quantitation using a plate based scintillation counter (Top-Count).
The % increase in counts in the presence of test compound at a particular concentration indicates the % increase in enzyme activity at that concentration.

m-IMCD3 cells = experiment: Inhibition of PGE2-stimulated in vitro cyst formation in 3D culture of m-IMCD3 cells; format: cell-based, mouse; details: for activity at 10 µM: Mus musculus, mIMCD3, 144 h, 10 μM test compound, mean cyst area (%) compared to 100% for (DMSO + PGE2) and 0% for DMSO control, 100 nM PGE2, 6 days, read-out: % Cyst area after incubation with 10 μM test compound
Method: HEK 293 and MDCK cells (Public Health England, Cell Culture Collections) were maintained in Dulbecco's Modified Eagle's Medium (DMEM) supplemented with 10% (v/v) fetal bovine serum (FBS) (Seralab), 2 mM L-glutamine and 100 U/ml penicillin streptomycin cocktail (ThermoFisher); termed complete media. Clonal HEK 293 cell lines were maintained in complete media supplemented with 0.6 mg/mL G418 (Enzo Life Sciences). Mouse inner medullary collecting duct (m-IMCD3) cells [American Type Culture Collection (ATCC)] were maintained in media consisting of DMEM/Hams F-12 50/50 Mix (DMEM F12; Corning) supplemented with penicillin streptomycin cocktail (100 U/ml) and FBS (10% v/v) (DMEM F12-10% FBS).
The mouse Inner Medullary Collecting Duct cell line (m-IMCD3) spontaneously forms cystic spheroids in 3D culture with a Type 1 collagen/Matrigel extracellular matrix. This process can be stimulated with agents which raise intracellular cAMP, such as PGE2, and is used as an in vitro model for the formation of cystic structures in the kidneys of patients with ADPKD.
Rat Collagen I (Fisher Scientific) is prepared on ice by neutralising with 1M NaOH and diluting with a 2×volume of DMEM/F12+10% FBS for coating plate (coating mix) and a 2.2 volume of DMEM/F12+10% FBS for cell plating (plating mix). This is mixed 1:1.1 with ice cold Matrigel (Corning) for coating plates (coating mix), and 1:0.95 with Matrigel for cell plating (plating mix).
The assay is conducted in the wells of a 96-well plate culture dish using a total volume of 130 μl of collagen/Matrigel/DMEM F12-10% FBS suspension in growth media for each matrix plug per individual well. Initially, 30 μl of collagen/Matrigel/DMEM F12-10% FBS (coating mix) is added into the well of a 96 well plate and the collagen is set to a gel by incubating at 37° C. for at least 15 minutes. A second layer of 100 μl collagen/Matrigel suspension (plating mix) containing m-IMCD3 cells (2.75×10^6 m-IMCD3 cells per 96-well plate) is layered over the coating mix and the collagen/Matrigel/cell mix again set to a gel by incubating at 37° C. Cell cultures are maintained at 37° C. in an atmosphere of 5% CO2, 95% air.
Between 18 and 24h after plating, test compound(s) as DMSO stock solutions [0.1% (v/v) final DMSO concentration] and PGE2 (100 nM final concentration) in DMEM F12-10% FBS are added in quadruplicate wells per condition. Media, togetherwith the test compound and PGE2 are replenished after 2 or 3 days. After 6 days of culture z stack images of the wells are captured using the Nikon Eclipse Ti2-E microscope. Nikon General Analysis software is used to measure the following parameters in each well: the mean cyst area, the number of cysts, and the total cyst area.
PDE4 long form activators inhibited in vitro cyst formation in m-IMCD3 cells. Data are shown in FIG. 2 and Table 5 as mean cyst area (%), compared to 100% for (DMSO+PGE2) and 0% for DMSO control.

T1 sequence (Q08499 1-745 isoform Q08499-6): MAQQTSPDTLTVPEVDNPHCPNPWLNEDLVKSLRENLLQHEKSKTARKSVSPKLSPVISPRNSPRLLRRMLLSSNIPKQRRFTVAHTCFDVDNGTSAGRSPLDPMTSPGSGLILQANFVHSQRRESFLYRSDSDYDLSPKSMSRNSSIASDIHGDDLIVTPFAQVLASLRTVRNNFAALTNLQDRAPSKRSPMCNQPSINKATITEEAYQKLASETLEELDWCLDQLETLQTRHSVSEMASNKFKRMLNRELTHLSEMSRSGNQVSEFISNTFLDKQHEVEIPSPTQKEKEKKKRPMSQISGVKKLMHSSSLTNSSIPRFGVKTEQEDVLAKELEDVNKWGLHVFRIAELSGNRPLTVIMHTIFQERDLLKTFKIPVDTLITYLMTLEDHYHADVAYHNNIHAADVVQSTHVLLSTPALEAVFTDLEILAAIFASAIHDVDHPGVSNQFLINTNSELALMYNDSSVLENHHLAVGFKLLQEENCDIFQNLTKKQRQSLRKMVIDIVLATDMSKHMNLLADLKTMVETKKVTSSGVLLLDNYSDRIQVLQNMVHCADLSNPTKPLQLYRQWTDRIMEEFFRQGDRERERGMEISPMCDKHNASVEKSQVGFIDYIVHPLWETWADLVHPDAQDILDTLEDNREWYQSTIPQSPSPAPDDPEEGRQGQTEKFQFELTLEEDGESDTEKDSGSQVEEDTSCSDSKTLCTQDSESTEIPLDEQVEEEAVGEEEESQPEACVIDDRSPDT

SMILES	activation at 30 µM (PDE4D5)	activity at 10 µM (m-IMCD3 cells)	Inhibition of PGE2-stimulated cyst formation in 3D culture of m-IMCD3 cells (FIG. 2) (m-IMCD3 cells; result in words)
Cc1cncc(-c2nc3ccc(C(=O)N[C@H]4CCCc5ccccc54)cc3s2)c1 [Example 44, (S)-2-(5-methylpyridin-3-yl)-N-(1,2,3,4-tetrahydronaphthalen-1-yl)benzo[d]thiazole-6-carboxamide]	87%	–	–
Cc1ccc(-c2nc3ccc(C(=O)N[C@H]4c5ccccc5C[C@H]4O)cc3s2)cn1 [Example 19, N-((1S,2R)-2-hydroxy-2,3-dihydro-1H-inden-1-yl)-2-(6-methylpyridin-3-yl)benzo[d]thiazole-6-carboxamide]	73%	–	–
O=C(N[C@H]1CCOc2ccccc21)c1ccc2sc(-c3cccnc3)nc2c1 [Example 67, (S)-N-(chroman-4-yl)-2-(pyridin-3-yl)benzo[d]thiazole-5-carboxamide]	89%	–	–
O=C(N[C@H]1CCOc2ccccc21)c1ccc2nc(-c3ccc(C4CC4)nc3)sc2c1 [Example 27, (S)-N-(chroman-4-yl)-2-(6-cyclopropylpyridin-3-yl)benzo[d]thiazole-6-carboxamide]	154%	–	–
Cc1cnn(C)c1-c1nc2ccc(C(=O)N[C@H]3CCOc4ccccc43)cc2s1 [Example 58, (S)-N-(chroman-4-yl)-2-(1,4-dimethyl-1H-pyrazol-5-yl)benzo[d]thiazole-6-carboxamide]	101%	–	–
Cc1ccc(-c2nc3ccc(C(=O)N[C@H]4CCc5ccccc54)cc3s2)cn1 [Example 17, (S)-N-(2,3-dihydro-1H-inden-1-yl)-2-(6-methylpyridin-3-yl)benzo[d]thiazole-6-carboxamide]	171%	–	–
Cn1cc(-c2nc3ccc(C(=O)N[C@H]4CCOc5ccccc54)cc3s2)cn1 [Example 57, (S)-N-(chroman-4-yl)-2-(1-methyl-1H-pyrazol-4-yl)benzo[d]thiazole-6-carboxamide]	100%	–	–
Cc1ccc(-c2nc3ccc(C(=O)NCc4ccc(Cl)cc4)cc3s2)cn1 [Example 11, N-(4-chlorobenzyl)-2-(6-methylpyridin-3-yl)benzo[d]thiazole-6-carboxamide]	104%	–	–
Cc1ccc(-c2nc3ccc(C(=O)N[C@@H]4c5ccccc5C[C@H]4O)cc3s2)cn1 [Example 21, N-((1R,2R)-2-hydroxy-2,3-dihydro-1H-inden-1-yl)-2-(6-methylpyridin-3-yl)benzo[d]thiazole-6-carboxamide]	193%	–	–
O=C(N[C@H]1CCCc2ccccc21)c1ccc2nc(-c3cccnc3)sc2c1 [Example 8, (S)-2-(pyridin-3-yl)-N-(1,2,3,4-tetrahydronaphthalen-1-yl)benzo[d]thiazole-6-carboxamide]	82%	–	–
O=C(N[C@H]1CCOc2ccccc21)c1ccc2nc(-c3cncc(CO)c3)sc2c1 [Example 62, (S)-N-(chroman-4-yl)-2-(5-(hydroxymethyl)pyridin-3-yl)benzo[d]thiazole-6-carboxamide]	133%	–	–
O=C(N[C@H]1CCOc2ccccc21)c1ccc2nc(N3CCCCC3)sc2c1 [Example 76, (S)-N-(chroman-4-yl)-2-(piperidin-1-yl)benzo[d]thiazole-6-carboxamide]	57%	–	–
Cc1ccc(-c2nc3ccc(C(=O)NCc4cccc(Cl)c4)cc3s2)cn1 [Example 14, N-(3-chlorobenzyl)-2-(6-methylpyridin-3-yl)benzo[d]thiazole-6-carboxamide]	120%	–	–
COc1cccc(CNC(=O)c2ccc3nc(-c4ccc(C)nc4)sc3c2)c1 [Example 16, N-(3-methoxybenzyl)-2-(6-methylpyridin-3-yl)benzo[d]thiazole-6-carboxamide]	64%	–	–
CCN1CCN(c2nc3ccc(C(=O)N[C@H]4CCOc5ccccc54)cc3s2)CC1 [Example 72, (S)-N-(chroman-4-yl)-2-(4-ethylpiperazin-1-yl)benzo[d]thiazole-6-carboxamide]	32%	–	–
Cc1ccc(-c2nc3ccc(C(=O)N[C@H]4CCCc5ccccc54)cc3s2)cn1 [Example 23, (S)-2-(6-methylpyridin-3-yl)-N-(1,2,3,4-tetrahydronaphthalen-1-yl)benzo[d]thiazole-6-carboxamide]	94%	–	–
Cc1ccc(-c2nc3ccc(C(=O)NCc4ccc(F)cc4)cc3s2)cn1 [Example 12, N-(4-fluorobenzyl)-2-(6-methylpyridin-3-yl)benzo[d]thiazole-6-carboxamide]	58%	–	–
O=C(NC1CCCC1)c1ccc2nc(C3CCN(CCO)CC3)sc2c1 [Example 171, N-cyclopentyl-2-(1-(2-hydroxyethyl)piperidin-4-yl)benzo[d]thiazole-6-carboxamide]	–	13%	–
O=C(N[C@@H]1c2ccccc2C[C@@H]1O)c1ccc2nc(C3CCNCC3)sc2c1 [Example 130, N-((1R,2S)-2-hydroxy-2,3-dihydro-1H-inden-1-yl)-2-(piperidin-4-yl)benzo[d]thiazole-6-carboxamide]	–	-2%	–
CCN1CCC(c2nc3cc(C)c(C(=O)N[C@H]4CCOc5ccccc54)cc3s2)CC1 [Example 191, (S)-N-(chroman-4-yl)-2-(1-ethylpiperidin-4-yl)-5-methylbenzo[d]thiazole-6-carboxamide]	–	3%	concentration-dependent inhibition
